The text below walks through data of patent US6548511B1, “Insecticidal/acaricidal agents” (Sagami Chemical Research Center, priority 1997, dated 2003).

One data set relates to common cutworm larvae. Briefly: Insecticidal effect on common cutworm larvae. It counts as in vivo. Conditions: 500 ppm, wettable powder, cabbage leaf disc soaked, 3rd instar larvae, 25° C., 5 days. The protocol:
A disc of cabbage leaf (6 cm in diameter) was cut out and soaked for 1 minute in a water-diluted solution of the insecticide of the present invention (wettable powder) produced in accordance with the method of Formulation Example 1. After the soaking, the leaf disc was air-dried and set in a plastic cup (7 cm in inner diameter), and 5 common cutworm larvae of 3rd instar were released therein (one concentration, two repetition). The thus released larvae were kept in a constant temperature chamber at 25° C., mortality and agony of the larvae were examined 5 days thereafter, and insecticidal ratio (%) was calculated by defining the larva in agony as ½ dead larvae.

Another data set deals with diamondback moth larvae. Briefly: Insecticidal effect on diamondback moth larvae. Type of data set: in vivo. Conditions: 500 ppm, wettable powder, cabbage leaf disc soaked, 3rd instar larvae, 4 days after release. Here is the method: A disc of cabbage leaf (6 cm in diameter) was cut out and soaked for 1 minute in a water-diluted solution of the insecticide of the present invention (wettable powder) produced in accordance with the method of Formulation Example 1. After the soaking, the disc was air-dried and set in a plastic cup (7 cm in inner diameter), and 5 diamondback moth larvae of 3rd instar were released therein (one concentration, two repetition). After 4 days of the release of larvae, mortality and agony of the larvae were examined, and insecticidal ratio (%) was calculated by defining the larvae in agony as ½ dead larvae.

Data set [1] relates to two-spotted spider mite eggs. The experiment in a line: Acaricidal effect on two-spotted spider mite eggs. It counts as in vivo. As to conditions: 500 ppm, wettable powder sprayed on kidney bean leaf disc, egg-killing ratio 8 days after treatment. The protocol: A total of 5 two-spotted spider mite female imagoes were released on a disc cut out from a kidney bean leaf (3 cm in diameter). The thus released female imagoes were allowed to lay eggs on the cut leaf for 20 hours and then removed. The acaricide of the present invention (wettable powder) produced in accordance with the method of Formulation Example 1 was diluted with water to a predetermined concentration, and the solution (3.5 ml) was applied on the just described disc (one concentration, two repetition) using a rotary sprayer (manufactured by Mizuho Rika). After 8 days of the treatment, the number of unhatched eggs and the number of hatched imagoes were examined to calculate egg-killing ratio (%).

Data set [2] relates to two-spotted spider mite female imagoes. Briefly: Acaricidal effect on two-spotted spider mite imagoes. It counts as in vivo. Conditions: 500 ppm, wettable powder sprayed on kidney bean leaf disc, 24 hours after treatment. The protocol: A total of 10 two-spotted spider mite female imagoes were released on a disc cut out from a kidney bean leaf (3 cm in diameter). The acaricide of the present invention (wettable powder) produced in accordance with the method of Formulation Example 1 was diluted with water to a predetermined concentration, and the solution (3.5 ml) was applied on the just described cut leaf (one concentration, two repetition) using a rotary sprayer (manufactured by Mizuho Rika). After 24 hours of the treatment, mortality of the imagoes was examined to calculate acaricidal ratio (%).

In data set [3] the test system is brown rice planthopper larvae. Briefly: Insecticidal effect on brown rice planthopper larvae. Conditions: 500 ppm, emulsifiable concentrate sprayed on rice seedling, 4th instar larvae, 5 days after treatment. Type of data set: in vivo. Here is the method:
A sprouted rice seedling was set in a glass cylinder (3 cm in inner diameter×17 cm in length), and 5 brown rice planthopper larvae of 4th instar were released therein. A water-diluted solution (0.5 ml) of the insecticide of the present invention (emulsifiable concentrate) produced in accordance with the method of Formulation Example 3 was applied to the just described glass cylinder (one concentration, two repetition) using a sprayer (manufactured by Mizuho Rika). After 5 days of the treatment, mortality and agony of the larvae were examined, and insecticidal ratio (%) was calculated by defining the larva in agony as ½ dead larvae.

Another data set concerns green peach aphid larvae. Briefly: Insecticidal effect on green peach aphid larvae. Type of data set: in vivo. Conditions: 500 ppm, emulsifiable concentrate, radish leaf soaked, 25° C., 4th day after treatment. Here is the method: A petiole part of a radish leaf was put into a screw bottle (capacity: 10 ml) filled with water, and 5 to 6 per one leaf of green peach aphid imagoes were inoculated. After the inoculation, the resulting bottle was put into a glass cylinder (3.5 cm in diameter and 15 cm in height, equipped with a mesh cover), and the green peach aphid imagoes were allowed to propagate in a constant temperature chamber at 25° C. for 3 days. After removal of the green peach aphid imagoes from the radish leaf, the resulting leaf was soaked (about 5 seconds) in a water-diluted solution of the insecticide (emulsifiable concentrate) of the present invention and then returned into the glass cylinder (one concentration, two repetition). The cylinder was kept in the constant temperature chamber of 25° C., and the number of aphid individuals on the radish leaf was examined on the 4th day after the treatment to calculate the insecticidal ratio (%) based on the result.

The test system of data set [4] is adzuki bean weevil imagoes. The experiment in a line: Insecticidal effect on adzuki bean weevil imagoes. As to conditions: 500 ppm, emulsifiable concentrate sprayed, 25° C., 4 days after treatment. Type of data set: in vivo.

The structures appear in SMILES notation.

The molecule `CCn1c(Nc2cc(Cl)ccc2Cl)nc(C(F)(F)F)cc1=O` registered a melting point of 167 to 168 °C.

As to `Cn1c(Nc2cc(C(F)(F)F)ccc2Cl)nc(C(F)(F)F)cc1=O` [Compound No. 20, 2-(2-chloro-5-trifluoromethylphenyl)amino-3-methyl-6-trifluoromethyl-4(3H)-pyrimidinone], the “Insecticidal ratio (%)” value in the data set on common cutworm larvae and in the data set on diamondback moth larvae was 100% in each case.

For the molecule `CCCCn1c(Nc2cc(C(F)(F)F)ccc2Cl)nc(C(F)(F)F)cc1=O` [Compound No. 22], the “Acaricidal ratio (%) eggs” value in data set [1] was 100%. In addition, the “Acaricidal ratio (%) imagoes” value in data set [2] worked out at 100%.

`CCn1c(Nc2ccc(C(F)(F)F)cc2C(F)(F)F)nc(C(F)(F)F)c(Cl)c1=O` [Compound No. 34, 2-{2,4-bis(trifluoromethyl)phenyl}amino-5-chloro-3-ethyl-6-trifluoromethyl-4(3H)-pyrimidinone] registered a melting point of 124 °C.

Take `Cn1c(Nc2cc(C(F)(F)F)ccc2C(F)(F)F)nc(C(F)(F)F)cc1=O` [Compound No. 46, 2-{2,5-bis(trifluoromethyl)phenyl}amino-3-methyl-6-trifluoromethyl-4(3H)-pyrimidinone]: the “Acaricidal ratio (%) eggs” value in data set [1] is listed as 100%. For the same molecule, the “Insecticidal ratio (%)” value (in data set [3]; in the data set on green peach aphid larvae; in data set [4]; in the data set on common cutworm larvae; in the data set on diamondback moth larvae) was 100% in each case. Also, the “Acaricidal ratio (%) imagoes” value in data set [2] is recorded as 100%.

Molecule `CCn1c(Nc2cc(C(F)(F)F)ccc2C(F)(F)F)nc(C(F)(F)F)cc1=O` [Compound No. 47, 2-{2,5-bis(trifluoromethyl)phenyl}amino-3-ethyl-6-trifluoromethyl-4(3H)-pyrimidinone] registered a melting point of 173 to 175 °C.

Molecule `CCCn1c(Nc2cc(C(F)(F)F)ccc2C(F)(F)F)nc(C(F)(F)F)c(Cl)c1=O` [Compound No. 51, 2-{2,5-bis(trifluoromethyl)phenyl}amino-5-chloro-3-propyl-6-trifluoromethyl-4(3H)-pyrimidinone] showed a melting point of 124 to 126 °C.

As to `CC(C)Cn1c(Nc2cc(C(F)(F)F)ccc2C(F)(F)F)nc(C(F)(F)F)cc1=O` [Compound No. 56, 2-{2,5-bis(trifluoromethyl)phenyl}amino-3-isobutyl-6-trifluoromethyl-4(3H)-pyrimidinone], the “Acaricidal ratio (%) eggs” value in data set [1] is 100%. The “Insecticidal ratio (%)” value (in data set [4]; in the data set on common cutworm larvae; with diamondback moth larvae) was 100% each time. Besides, the “Acaricidal ratio (%) imagoes” value in data set [2] is recorded as 100%.

The molecule `CCC(C)n1c(Nc2cc(C(F)(F)F)ccc2C(F)(F)F)nc(C(F)(F)F)cc1=O` (stereo not shown) [Compound No. 58, 2-{2,5-bis(trifluoromethyl)phenyl}amino-3-sec-butyl-6-trifluoromethyl-4(3H)-pyrimidinone] came in with a melting point of 165 to 167 °C.

In turn, `CCC(C)n1c(Nc2cc(C(F)(F)F)ccc2C(F)(F)F)nc(C(F)(F)F)c(Cl)c1=O` (stereo not shown) [Compound No. 59, 2-{2,5-bis(trifluoromethyl)phenyl}amino-3-sec-butyl-5-chloro-6-trifluoromethyl-4(3H)-pyrimidinone] returned a melting point of 133 to 135 °C.

Turning to `O=c1cc(C(F)(F)F)nc(Nc2cc(C(F)(F)F)ccc2C(F)(F)F)n1C1CCCCC1` [Compound No. 64, 2-{2,5-bis(trifluoromethyl)phenyl}amino-3-cyclohexyl-6-trifluoromethyl-4(3H)-pyrimidinone], the melting point was 154 to 156 °C.

In turn, `O=c1c(Cl)c(C(F)(F)F)nc(Nc2cc(C(F)(F)F)ccc2C(F)(F)F)n1C1CCCCC1` [Compound No. 65, 2-{2,5-bis(trifluoromethyl)phenyl}amino-5-chloro-3-cyclohexyl-6-trifluoromethyl-4(3H)-pyrimidinone] registered a melting point of 181 to 183 °C.

As for `C=CCn1c(Nc2cc(C(F)(F)F)ccc2C(F)(F)F)nc(C(F)(F)F)cc1=O` [Compound No. 66, 3-allyl-2-{2,5-bis(trifluoromethyl)phenyl}amino-6-trifluoromethyl-4(3H)pyrimidinone], the melting point lay in the range of 116 to 118 °C.

Regarding `CC(C)Cn1c(Nc2cc(C(F)(F)F)ccc2Cl)nc(C(F)(F)F)cc1=O` [compound 23, 2-(2-chloro-5-trifluoromethylphenyl)amino-3-isobutyl-6-trifluoromethyl-4(3H)-pyrimidinone], the “Insecticidal ratio (%)” value in the data set on common cutworm larvae is 100%.

Take `Cn1c(Nc2cc(C(F)(F)F)cc(C(F)(F)F)c2)nc(C(F)(F)F)cc1=O` [compound 69, 2-{3,5-bis(trifluoromethyl)phenyl}amino-3-methyl-6-trifluoromethyl-4(3H)-pyrimidinone]: the “Insecticidal ratio (%)” value with common cutworm larvae and in the data set with diamondback moth larvae was 100% throughout.
